# Columns and labels:
# Toll-like receptor 7 = target: T1, Toll-like receptor 7 (Homo sapiens, UniProt Q9NYK1); test: Agonist activity at human TLR7 expressed in HEK-Blue-7 cells assessed as increase in NF-kappaB activation by sAP assay; assay type: functional, cell-based
# T1 sequence (Q9NYK1 whole entry): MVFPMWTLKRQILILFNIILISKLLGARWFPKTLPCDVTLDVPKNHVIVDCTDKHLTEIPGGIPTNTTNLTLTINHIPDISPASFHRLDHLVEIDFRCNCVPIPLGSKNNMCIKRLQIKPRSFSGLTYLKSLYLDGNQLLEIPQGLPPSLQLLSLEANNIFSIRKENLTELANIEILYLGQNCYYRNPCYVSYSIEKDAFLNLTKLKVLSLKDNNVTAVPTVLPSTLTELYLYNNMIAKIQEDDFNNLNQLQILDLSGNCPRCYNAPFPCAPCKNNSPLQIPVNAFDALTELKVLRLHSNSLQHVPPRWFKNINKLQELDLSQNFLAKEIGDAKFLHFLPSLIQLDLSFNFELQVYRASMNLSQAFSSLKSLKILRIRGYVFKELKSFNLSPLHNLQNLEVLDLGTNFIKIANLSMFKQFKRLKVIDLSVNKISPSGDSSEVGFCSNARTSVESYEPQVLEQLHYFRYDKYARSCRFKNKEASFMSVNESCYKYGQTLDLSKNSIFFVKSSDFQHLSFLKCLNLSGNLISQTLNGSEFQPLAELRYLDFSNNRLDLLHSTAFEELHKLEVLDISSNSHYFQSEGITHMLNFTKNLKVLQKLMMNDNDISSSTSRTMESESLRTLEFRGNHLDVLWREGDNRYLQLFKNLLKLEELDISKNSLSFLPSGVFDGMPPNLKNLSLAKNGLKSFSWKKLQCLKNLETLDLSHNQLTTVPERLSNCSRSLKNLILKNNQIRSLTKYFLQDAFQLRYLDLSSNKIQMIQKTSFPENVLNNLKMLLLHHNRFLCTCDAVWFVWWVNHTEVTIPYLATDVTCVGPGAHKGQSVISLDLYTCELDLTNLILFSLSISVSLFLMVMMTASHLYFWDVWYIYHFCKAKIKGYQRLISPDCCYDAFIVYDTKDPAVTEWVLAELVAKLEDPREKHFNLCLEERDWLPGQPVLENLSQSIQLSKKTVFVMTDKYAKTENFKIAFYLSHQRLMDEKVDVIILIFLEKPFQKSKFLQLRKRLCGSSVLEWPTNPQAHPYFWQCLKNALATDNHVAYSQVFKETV
# [1] = Drug uptake in human CD3-/CD56+ natural killer cells treated for 30 mins by flow cytometry; assay type: ADME; conditions: nk cell, 0.5 h
# [2] = Drug uptake in human CD3-/CD56- B lymphocytes treated for 30 mins by flow cytometry; assay type: ADME, cell-based; conditions: b-cell, 0.5 h
# [3] = Drug uptake in human CD3+/CD56- T lymphocytes treated for 30 mins by flow cytometry; assay type: ADME, cell-based; conditions: t-cell, 0.5 h
# [4] = Drug uptake in mouse J774.1 cells assessed as perinuclear localization at 100 nM by confocal fluorescence microscopy; assay type: ADME, cell-based; conditions: j774.1, 0.1 µM
structure (smiles),measurement,setting,value
CCCCc1nc2c(N)nc3ccccc3c2n1Cc1ccc(CNC(=S)Nc2ccc(-c3c4ccc(=[N+](CC)CC)cc-4oc4cc(N(CC)CC)ccc34)c(C(=O)O)c2)cc1,EC50,Toll-like receptor 7,115 nM
CCCCc1nc2c(N)nc3ccccc3c2n1Cc1ccc(CNC(=S)Nc2cccc(-c3c4ccc(=O)cc-4oc4cc(O)ccc34)c2C(=O)O)cc1,EC50,Toll-like receptor 7,247 nM
same,Drug uptake,[1],Active
same,Drug uptake,[2],Active
same,Drug uptake,[3],Active
CCCCc1nc2c(N)nc3ccccc3c2n1Cc1cccc2ccccc12,EC50,Toll-like receptor 7,396 nM
CCCCc1nc2c(N)nc3ccccc3c2n1Cc1ccc(CNC(=S)NCCCCCNC(=O)COc2ccc(C3=[N+]4C(=Cc5ccc(-c6cccs6)n5[B-]4(F)F)C=C3)cc2)cc1,EC50,Toll-like receptor 7,108 nM
same,Drug uptake,[4],Active

# Source: ChEMBL document CHEMBL1268985, “Syntheses of fluorescent imidazoquinoline conjugates as probes of Toll-like receptor 7” (Bioorg Med Chem Lett, 2010)
